Experiment [1] relates to mixed CD4+ T cells and CD8+ T cells. The experiment in a line: CD4+/CD8+ frequencies after 10 days with 2-DG in mixed CD4+:CD8+ cells (5:1, 10:1). It is filed as cell-based, human. To be noted: 0.25 mM 2-DG; for correction of deficits in CD8+ T cells compared to day 0: CD4+:CD8+ mixed 5:1 and 10:1. On the procedure:
(§1) For some studies, CD8+ and CD4+ T cells were isolated from PBMCs by negative selection using Untouched Human CD8+ and CD4+ T Cells Kits. Naïve and non-naïve T cells were isolated from enriched T cells by positive selection using CD45RA nanobeads (Miltenyi). Phenotype: Primary human T cells were expanded for 10 days with and without 2-DG and 5% human AB serum. DYNABEADS® were removed from 2×10^6 cells by magnetic separation. Surface staining was performed with antibodies against CD3 (Invitrogen, Cat. No. CD0329), CD4 (Molecular Probes, Cat. No. A15858), CD8 (Invitrogen, Cat. No. MHCD0828). Flow cytometric analysis was performed on a Gallios flow cytometer and Kaluza software (Beckman Coulter, Indianapolis IN). For some studies, CD8+ and CD4+ T cells were isolated from PBMCs by negative selection using Untouched Human CD8+ and CD4+ T Cells Kits. Naïve and non-naïve T cells were isolated from enriched T cells by positive selection using CD45RA nanobeads (Miltenyi). Phenotype: Primary human T cells were expanded for 10 days with and without 2-DG and 5% human AB serum. DYNABEADS® were removed from 2×10^6 cells by magnetic separation. Surface staining was performed with antibodies against CD3 (Invitrogen, Cat. No. CD0329), CD4 (Molecular Probes, Cat. No. A15858), CD8 (Invitrogen, Cat. No. MHCD0828). Flow cytometric analysis was performed on a Gallios flow cytometer and Kaluza software (Beckman Coulter, Indianapolis IN).

The test system of a further experiment is Non-naïve T cells. The experiment in a line: CD8+/CD4+ phenotype after 10 days with 2-DG in non-naïve T cells. The class given is cell-based, human. The following applies: 4 mM 2-DG. The procedure:
as §1

The mark [2] stands for this setting: Day 10, 10:1 CD4+ CD8+ ratio, average.
[3] abbreviates: Day 10, 5:1 CD4+ CD8+ ratio, replicates.
Setting [4] is: Day 10, 10:1 CD4+ CD8+ ratio, replicates.
Where [5] appears, read: Day 10, non-naïve T cells, replicates.

Where “and” joins values, the source holds several entries; their conditions need not be identical. Identical values can stand only once.

On to `O=CC[C@@H](O)[C@H](O)[C@H](O)CO` [2-DG, 2-Deoxy-D-Glucose], for which the “% CD4+” value in experiment [1] (Day 10, 10:1 CD4+ CD8+ ratio) is 44.89% and 44.25%; in experiment [1] (setting [3]), 32.91% and 33.88%; in experiment [1] (setting [4]), 44.25% and 44.89%; in the experiment with Non-naïve T cells (setting [5]) it was 80.85% and 81.31%. Also, the “% CD4+ (Avg)” value is 44.57% in experiment [1] (Day 10, 10:1 CD4+ CD8+ ratio); 44.57% in experiment [1] (setting [2]); 33.39% in experiment [1] (Day 10, 5:1 CD4+ CD8+ ratio); 81.08% in the experiment with Non-naïve T cells (Day 10, non-naïve T cells). The “% CD8+” value was 43.55% and 45.35% in experiment [1] (Day 10, 10:1 CD4+ CD8+ ratio); 53.50% and 54.17% in experiment [1] (setting [3]); 45.35% and 43.55% in experiment [1] (setting [4]); 12.23% with Non-naïve T cells (setting [5]). Besides, the “% CD8+ (Avg)” value stood at 44.45% in experiment [1] (Day 10, 10:1 CD4+ CD8+ ratio); 44.45% in experiment [1] (setting [2]); 53.83% in experiment [1] (Day 10, 5:1 CD4+ CD8+ ratio); 12.23% with Non-naïve T cells (Day 10, non-naïve T cells). Moreover, the “correction of deficits in CD8+ T cells compared to day 0” value in experiment [1] is “able to correct for a large deficits in CD8+ T cells”; in experiment [1] (listed as 2-DH), “able to correct for substantial deficits in CD8+ T cells”. The “effect on CD8+:CD4+ ratio in non-naïve T cells” value in the experiment with Non-naïve T cells (10 days) is “lesser effect”. The “% Ratios (CD8+/CD4+)” value with Non-naïve T cells (Day 10, non-naïve T cells) worked out at 0.15. Besides, the “Fold Increase compared to Baseline” value in the experiment on Non-naïve T cells (Day 10 vs Day 0, non-naïve T cells) is 0.35.

(Values after patent US20240076609A1, “COMPOSITIONS AND METHODS FOR CULTURING AND EXPANDING CELLS” (LIFE TECHNOLOGIES CORPORATION, priority 2017, published 2024).)
